From patent US20240132513A1, “BENZAZEPINE DERIVATIVES, COMPOSITIONS, AND METHODS FOR TREATING COGNITIVE IMPAIRMENT” (AGENEBIO, INC., priority 2022, published 2024)
Read-outs that look alike come from different tables or passages of the source.

Key:
α5β3γ2 GABAA R = α5β3γ2 GABAA R (Homo sapiens, UniProt P18507+P31644); experiment: Binding activity on GABAA R: inhibition of [3H]Ro15-1788 binding, α5 containing receptor
How it was run: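 Displacement of [3H]Ro15-1788 (flumazenil) measured at 4 °C over 1 h using 0.2 mg/ml membrane protein from Ltk cells carrying α5β3γ2 GABAA receptors, expression induced with 0.5 μM dexamethasone for 1 day; buffer pH 7.4 KH2PO4/EDTA/KCl. 10 μM diazepam defined nonspecific binding; filter-trapped radioactivity counted, in triplicate.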

GABAA R (α5β2γ2) = target: T1, GABAA R (α5β2γ2) (Homo sapiens, UniProt P18507+P31644); experiment: Positive allosteric modulator activity: potentiation of EC20 GABA current in oocytes; assay type: cell-based
T1 construct: expressed in transfected cells
Method: On day 1, 1 ng/32 nL of GABAA α5β2γ2 cDNA was injected into one oocyte. Test starts on day 2. The cDNA injected to the oocytes was a mix of alpha, beta and gamma, their ratio is 1:1:10 (by weight) and the total weight of the mixed 3 subunits to be injected in one oocyte was 1 ng in 32 nl volume. The injected oocytes can also be tested on day 3. In such case, the cDNA amount injected to the oocytes should be reduced by 20%.
Compounds of the present disclosure were tested using the following procedures.
8 oocytes were placed in 8 chambers of OpusXpress and superfused with Modified Barth's Saline (MBS) at 3 mL/min. Glass electrodes back-filled with 3M KCl (0.5-3 megaohms) were used. Membrane potential of oocytes was voltage-clamped at −60 mV. • 2).
Control Test (Diazepam or Methyl 3,5-Diphenylpyridazine-4-Carboxylate) • 1). New oocytes was used to run new test. • 2). […] Oocytes were washed with MBS for 5-10 min. • 4). […] Itest was divided by IGABA to obtain potentiation (%).
Test Compounds at Multiple Doses • 1). Repeat the above steps 1), 2) and 3) in the control test. • 2). […] Divide Itest by IGABA to obtain potentiation (%). • 3). Discard all tested oocytes, new oocytes were used and the above steps 1) and 2) were repeated to test second concentration of the same compound. Each oocyte was used for only one concentration test for a single test compound. The steps were repeated for other test compounds.

[1] = read-out: GABA α5 Functional Data: potentiation, @ 100 nM, EC20 GABA, ranges of the column heads
[2] = ranges of the column heads, [3H]Ro15-1788, Ltk cell membranes
[3] = read-out: GABA α5 Functional Data: potentiation

T1 sequence (P31644 32-462): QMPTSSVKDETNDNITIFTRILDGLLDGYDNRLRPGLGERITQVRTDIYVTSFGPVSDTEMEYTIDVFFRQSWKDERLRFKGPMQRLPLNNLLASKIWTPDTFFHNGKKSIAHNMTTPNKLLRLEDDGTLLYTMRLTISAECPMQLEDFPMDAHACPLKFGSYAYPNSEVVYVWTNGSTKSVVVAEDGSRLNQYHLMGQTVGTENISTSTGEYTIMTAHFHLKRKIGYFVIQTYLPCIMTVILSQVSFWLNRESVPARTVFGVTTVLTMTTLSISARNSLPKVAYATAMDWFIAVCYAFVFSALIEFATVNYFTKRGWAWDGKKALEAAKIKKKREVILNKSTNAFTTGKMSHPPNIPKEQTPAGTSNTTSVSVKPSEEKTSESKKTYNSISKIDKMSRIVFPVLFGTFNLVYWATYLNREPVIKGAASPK
T1 sequence (P47870 25-512 partner limits assumed): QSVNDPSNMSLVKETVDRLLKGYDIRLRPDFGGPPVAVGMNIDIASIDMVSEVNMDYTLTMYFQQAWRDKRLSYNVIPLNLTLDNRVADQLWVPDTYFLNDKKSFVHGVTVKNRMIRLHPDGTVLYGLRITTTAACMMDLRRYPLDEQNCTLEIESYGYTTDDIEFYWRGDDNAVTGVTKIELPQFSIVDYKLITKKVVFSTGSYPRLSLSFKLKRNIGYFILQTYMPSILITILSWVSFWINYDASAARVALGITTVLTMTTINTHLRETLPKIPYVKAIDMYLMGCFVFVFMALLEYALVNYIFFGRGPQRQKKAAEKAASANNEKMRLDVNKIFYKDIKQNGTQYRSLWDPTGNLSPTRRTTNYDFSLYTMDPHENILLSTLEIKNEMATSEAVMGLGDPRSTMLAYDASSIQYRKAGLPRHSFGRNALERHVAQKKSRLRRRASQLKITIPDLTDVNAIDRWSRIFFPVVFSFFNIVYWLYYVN
T1 sequence (P18507 40-475): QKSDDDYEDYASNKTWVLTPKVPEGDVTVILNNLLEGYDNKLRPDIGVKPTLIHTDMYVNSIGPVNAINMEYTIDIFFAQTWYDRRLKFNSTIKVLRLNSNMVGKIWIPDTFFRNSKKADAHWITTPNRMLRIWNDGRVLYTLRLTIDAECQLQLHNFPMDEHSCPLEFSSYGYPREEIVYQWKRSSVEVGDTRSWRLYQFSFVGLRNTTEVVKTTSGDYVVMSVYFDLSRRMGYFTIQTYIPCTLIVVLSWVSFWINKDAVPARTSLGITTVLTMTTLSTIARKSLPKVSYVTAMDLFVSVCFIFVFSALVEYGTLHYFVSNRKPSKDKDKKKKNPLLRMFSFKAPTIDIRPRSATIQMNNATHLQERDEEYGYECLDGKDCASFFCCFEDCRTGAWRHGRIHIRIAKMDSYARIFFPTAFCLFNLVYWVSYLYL
Sequence of α5β3γ2 GABAA R (P31644 32-462): as the sequence (P31644 32-462) above
Sequence of α5β3γ2 GABAA R (P28472 26-473 partner): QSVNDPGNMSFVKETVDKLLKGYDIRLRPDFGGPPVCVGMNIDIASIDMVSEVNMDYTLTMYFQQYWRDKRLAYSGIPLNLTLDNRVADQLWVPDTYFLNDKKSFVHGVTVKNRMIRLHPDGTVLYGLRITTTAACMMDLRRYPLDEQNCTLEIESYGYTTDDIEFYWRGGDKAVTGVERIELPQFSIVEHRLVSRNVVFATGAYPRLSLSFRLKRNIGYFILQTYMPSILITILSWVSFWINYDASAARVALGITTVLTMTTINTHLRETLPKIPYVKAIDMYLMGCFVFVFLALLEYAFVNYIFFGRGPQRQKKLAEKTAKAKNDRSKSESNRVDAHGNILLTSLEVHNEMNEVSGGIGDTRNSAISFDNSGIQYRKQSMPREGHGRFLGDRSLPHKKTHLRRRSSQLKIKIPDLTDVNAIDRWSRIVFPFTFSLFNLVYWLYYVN
Sequence of α5β3γ2 GABAA R (P18507 40-475): as the sequence (P18507 40-475) above

Structure (SMILES)	Ki (α5β3γ2 GABAA R)	activation at 0.1 µM (GABAA R (α5β2γ2); [1])	Ki (α5β3γ2 GABAA R; [2])	activation at 0.1 µM (GABAA R (α5β2γ2); [3])
COc1ccc2c(c1)-c1[nH]ncc1Cc1c(-c3nc(C(C)C)no3)ncn1-2 [Compound 10]	< 100 nM	20 to 50%		
COc1ccc2c(c1)-c1[nH]ncc1Cc1c(-c3nc(C(C)(C)C)no3)ncn1-2 [Compound 11]	< 100 nM	5 to 20%		
COc1ccc2c(c1)-c1[nH]ncc1Cc1c(C3=N[C@H](c4ccccc4)CO3)ncn1-2 [Compound 14]	< 100 nM	5 to 20%		
COc1ccc2c(c1)-c1nn(C)cc1Cc1c(-c3nc(C)no3)ncn1-2 [Compound 20]	< 100 nM	5 to 20%		
COc1ccc2c(c1)-c1nn(Cc3ccccc3F)cc1Cc1c(-c3nc(C)no3)ncn1-2 [Compound 21]	< 100 nM	5 to 20%		
COc1ccc2c(c1)-c1nn(Cc3ccc(F)cc3)cc1Cc1c(-c3nc(C)no3)ncn1-2 [Compound 23]	< 100 nM	5 to 20%		
Cc1noc(-c2ncn3c2Cc2cn[nH]c2-c2cc(Cl)ccc2-3)n1 [Compound 33]	< 100 nM	20 to 50%		
CC(C)c1noc(-c2ncn3c2Cc2cn[nH]c2-c2cc(Cl)ccc2-3)n1 [Compound 34]	< 100 nM	20 to 50%		
CC(C)(C)c1noc(-c2ncn3c2Cc2cn[nH]c2-c2cc(Cl)ccc2-3)n1 [Compound 35]	< 100 nM	20 to 50%		
COc1ccc2c(c1)-c1[nH]ncc1Cc1c(C#Cc3ccnn3C)ncn1-2 [Compound 39]			< 100 nM	20 to 50%
COc1ccc2c(c1)-c1nn(Cc3ccccc3)cc1Cc1c(-c3nc(C(C)C)no3)ncn1-2 [Compound 44]	< 100 nM	20 to 50%		
COc1ccc2c(c1)-c1[nH]ncc1Cc1c(-c3nc(C(F)(F)F)no3)ncn1-2 [Compound 45]	< 100 nM	20 to 50%		
COc1ccc2c(c1)-c1nn(C)cc1Cc1c(-c3nc(C(C)C)no3)ncn1-2 [Compound 46]	< 100 nM	5 to 20%		
COc1ccc(C#Cc2ncn3c2Cc2cn[nH]c2-c2cc(Cl)ccc2-3)cn1 [Compound 52]	< 100 nM	5 to 20%		
Clc1ccc2c(c1)-c1[nH]ncc1Cc1c(-c3ncco3)ncn1-2 [Compound 55]	< 100 nM	5 to 20%		
CCOC(=O)c1ncn2c1Cc1cnoc1-c1cc(Cl)ccc1-2 [Compound 57]			< 100 nM	5 to 20%
CC(C)(C)C#Cc1ncn2c1Cc1cn[nH]c1-c1cc(Cl)ccc1-2 [Compound 63]			< 100 nM	20 to 50%
Clc1ccc2c(c1)-c1[nH]ncc1Cc1c(C#Cc3cccnc3)ncn1-2 [Compound 64]	< 100 nM	> 50%		
COc1ccc2c(c1)-c1[nH]ncc1Cc1c(C#CC(C)(C)C)ncn1-2 [Compound 73]	< 100 nM	5 to 20%		
COc1ccc2c(c1)-c1nn(Cc3ccccc3)cc1Cc1c(-c3cnn(Cc4ccccc4)c3)ncn1-2 [Compound 76]			< 100 nM	20 to 50%
CC(C)c1nc(-c2ncn3c2Cc2cn[nH]c2-c2cc(Cl)ccc2-3)no1 [Compound 84]	< 100 nM	5 to 20%		
FC(F)(F)c1nc(-c2ncn3c2Cc2cn[nH]c2-c2cc(Cl)ccc2-3)no1 [Compound 85]	< 100 nM	5 to 20%		
Cc1nc(-c2ncn3c2Cc2cn[nH]c2-c2cc(Cl)ccc2-3)no1 [Compound 86]	< 100 nM	5 to 20%		
COc1ccc2c(c1)-c1[nH]ncc1Cc1c(-c3noc(C(F)(F)F)n3)ncn1-2 [Compound 87]			< 100 nM	20 to 50%

Structure (SMILES)	Ki (α5β3γ2 GABAA R)	activation at 0.1 µM (GABAA R (α5β2γ2); [1])	Ki (α5β3γ2 GABAA R; [2])	activation at 0.1 µM (GABAA R (α5β2γ2); [3])
COc1ccc2c(c1)-c1[nH]ncc1Cc1c(-c3noc(C)n3)ncn1-2 [Compound 88]	< 100 nM	5 to 20%		
COc1ccc2c(c1)-c1[nH]ncc1Cc1c(C#Cc3ccccn3)ncn1-2 [Compound 90]			< 100 nM	20 to 50%
COc1ccc2c(c1)-c1[nH]ncc1Cc1c(C#Cc3cccnc3)ncn1-2 [Compound 91]	< 100 nM	5 to 20%		
Clc1ccc2c(c1)-c1[nH]ncc1Cc1c(-c3cnco3)ncn1-2 [Compound 93]			< 100 nM	5 to 20%
Clc1ccc2c(c1)-c1[nH]ncc1Cc1c(C#Cc3ccccn3)ncn1-2 [Compound 94]			< 100 nM	20 to 50%
CC(C)c1noc(-c2ncn3c2Cc2cn(Cc4ccccc4)nc2-c2cc(Cl)ccc2-3)n1 [Compound 96]			< 100 nM	5 to 20%
CC(C)c1noc(-c2ncn3c2Cc2cn(Cc4ccncc4)nc2-c2cc(Cl)ccc2-3)n1 [Compound 97]	< 100 nM	5 to 20%		
CC(C)c1noc(-c2ncn3c2Cc2cn(Cc4cccnc4)nc2-c2cc(Cl)ccc2-3)n1 [Compound 98]			< 100 nM	5 to 20%
CC(C)c1noc(-c2ncn3c2Cc2cn(Cc4ccccn4)nc2-c2cc(Cl)ccc2-3)n1 [Compound 99]	< 100 nM			20 to 50%
COc1ccc2c(c1)-c1[nH]ncc1Cc1c(-c3nc(C4CCOC4)no3)ncn1-2 (stereo not drawn) [Compound 100]	< 100 nM	5 to 20%		
Cn1cc2c(n1)-c1cc(Cl)ccc1-n1cnc(C#CC(C)(C)C)c1C2 [Compound 101]	< 100 nM	20 to 50%		
CC(C)c1noc(-c2ncn3c2Cc2cn(C)nc2-c2cc(Cl)ccc2-3)n1 [Compound 103]			< 100 nM	5 to 20%
CCn1cc2c(n1)-c1cc(Cl)ccc1-n1cnc(-c3nc(C(C)C)no3)c1C2 [Compound 104]			< 100 nM	5 to 20%
Clc1ccc2c(c1)-c1[nH]ncc1Cc1c(-c3nc(C4CC4)no3)ncn1-2 [Compound 105]	< 100 nM	20 to 50%		
FC(F)(F)c1noc(-c2ncn3c2Cc2cn[nH]c2-c2cc(Cl)ccc2-3)n1 [Compound 106]	< 100 nM	20 to 50%		
Clc1ccc2c(c1)-c1[nH]ncc1Cc1c(-c3nc(C4CCOC4)no3)ncn1-2 (stereo not drawn) [Compound 108]	< 100 nM	20 to 50%		
COc1ccc2c(c1)-c1nn(C)cc1Cc1c(-c3noc(C(C)C)n3)ncn1-2 [Compound 109]			< 100 nM	20 to 50%
COCCn1cc2c(n1)-c1cc(OC)ccc1-n1cnc(-c3noc(C(C)C)n3)c1C2 [Compound 110]	< 100 nM	20 to 50%		
COCCn1cc2c(n1)-c1cc(Cl)ccc1-n1cnc(-c3nc(C(C)C)no3)c1C2 [Compound 111]			< 100 nM	20 to 50%
CC(C)c1noc(-c2ncn3c2Cc2cn(CCN(C)C)nc2-c2cc(Cl)ccc2-3)n1 [Compound 112]	< 100 nM	5 to 20%		
Cn1cc2c(n1)-c1cc(Cl)ccc1-n1cnc(-c3nc(C(C)(C)C)no3)c1C2 [Compound 113]	< 100 nM	20 to 50%		
COc1ccc2c(c1)-c1nn(C(C)C)cc1Cc1c(-c3noc(C(C)C)n3)ncn1-2 [Compound 114]	< 100 nM	20 to 50%		
Clc1ccc2c(c1)-c1[nH]ncc1Cc1c(-c3nc(C4CCCC4)no3)ncn1-2 [Compound 115]	< 100 nM	5 to 20%		
COc1ccc2c(c1)-c1nn(CC3CC3)cc1Cc1c(-c3nc(C(F)(F)F)no3)ncn1-2 [Compound 116]	< 100 nM	5 to 20%		
